Reference: patent US7335640B2, “Administration of hypocretin-1 for treatment of narcolepsy” (The Regents of the University of California, priority 1999, dated 2008)
Entries after “also recorded” stand apart in the source; their conditions may differ.

Key:
[1] = test system: genetically narcoleptic Doberman pinschers; test: modified food elicited cataplexy test (FECT); assay type: in vivo; conditions: for cataplexy (number of cataplectic attacks): FECT 4 min after administration; for FECT time (time to consume the food) / cataplexy (number of cataplectic attacks / falls): vs saline control
Description: (§1) Six genetically narcoleptic Doberman pinschers (5 males and 1 female) served as subjects. We analyzed the effect of systemically administered Hcrt-1 on cataplexy with a modified food elicited cataplexy test (FECT). The effect of Hcrt-1 administration on sleep organization was determined using polygraph recording. The effect of Hcrt-1 administration on activity levels and the duration of sleep-waking states over the 24-hr period was determined with actigraphy.
(§2) One to 4 μg/kg of Hcrt-1 (orexin-A, #003-30, Phoenix Pharmaceuticals, Mountain View, Calif.) dissolved in normal saline (100 μg in 2 ml) was administered through the cephalic vein using a glass syringe. The glass syringe was pre-soaked in 1% BSA, rinsed in Milli-Q water, then dried at 60° C. prior to use. This treatment combined with the large volume of the dilutent used minimizes problems caused by the “stickiness” of the peptide. On control days, saline was administered in the same manner. Hcrt-1 or control injections were administered daily at the same time.
FECT was done by introducing a bowl of soft food (Pedigree, by Kalkan) in the home cage and counting the number of cataplectic attacks (including hind limb collapse and total cataplexies in which all four limbs collapse and the whole body contacts the floor) and total time required to eat the food (FECT time). All the FECTs began 4 min after the administration of Hcrt-1 or saline.
(§3) Data were analyzed with ANOVA, followed by post-hoc comparisons using Newman-Keuls tests. Bonferroni t-tests were done to compare the effect of Hcrt-1 on sleep stages measured with polygraphic recording. One sample t-tests were performed to test the significance of number of cataplectic attacks and FECT time (expressed as a percentage of baseline) after Hcrt-1 within each dose.

[2] = test system: genetically narcoleptic Doberman pinschers; test: actigraphy of sleep-wake periods and activity level; assay type: in vivo
Description: as §1, §2
The effects of Hcrt-1 on sleep-wake periods were monitored continuously for 24 hrs/day with collar mounted actigraphs (Actiwatch, Mini Mitter Inc, Sundriver, Oreg.) while the animals remained in their home dog runs. Actigraphs were secured to a neck collar that was placed on the dogs throughout the period of study. Data were downloaded to a PC through an inductively coupled Actiwatch reader and further analyzed by a program of our design. The program could integrate total numbers of movements above a preset amplitude for a measurement of total level of activity in 5 minutes epochs. For analysis of sleep state, actigraphs were first calibrated by placing them on an animal instrumented for conventional polygraphic recording. A threshold was determined for discriminating polygraphically defined waking and sleep in 30-sec epochs. The durations of sleep periods were then counted and tabulated by computer. The sleep-wake bouts measured by actigraph correlated well with hypnograms obtained from polygraphic recording (r=0.84, p<0.001).
as §3
Actigraph measurements were used to calculate the duration of sleep and waking states for the nights following injection. First, comparisons of actigraphic measurements and polygraphically recorded sleep states were made and used to determine thresholds for distinguishing sleep and wake periods. Then wake and sleep state periods were quantified starting 2 hrs following administration. […] These effects lasted for more than 24 hrs (p<0.01, F=5.56, df=3, 15 and p<0.002, F=8.58, df=3, 15 for sleep and wake periods respectively). The frequency of sleep and wake bouts was reduced (p<0.05, F=3.35, df=3, 15 and p<0.05, F=3.40, df=3, 15, respectively) (FIG. 2b, 2c).

[3] = test system: genetically narcoleptic Doberman pinschers; test: polygraphic recording of sleep-wake parameters; assay type: in vivo
Description: as §1
One to 4 μg/kg of Hcrt-1 (orexin-A, #003-30, Phoenix Pharmaceuticals, Mountain View, Calif.) dissolved in normal saline (100 μg in 2 ml) was administered through the cephalic vein using a glass syringe. The glass syringe was pre-soaked in 1% BSA, rinsed in Milli-Q water, then dried at 60° C. prior to use. This treatment combined with the large volume of the dilutent used minimizes problems caused by the “stickiness” of the peptide. […]
Polygraphic recording. […] Polygraphic variables were recorded for 4 hrs after Hcrt-1 (3 μg/kg) or saline injection.
as §3

[4] = Hcrt-1 levels by solid-phase RIA, narcoleptic dog; assay type: in vivo
Description: In order to assess the effect of the intravenous Hcrt-1 injection on central levels of the compound, cerebrospinal fluid (CSF) and blood serum was collected and analyzed after infusion of Hcrt-1. In these studies, Hcrt-1 was injected intravenously as in the behavioral studies into two Doberman pinschers, one narcoleptic, and one control that had been anesthetized with Fluothane anesthesia. Saline was injected in a third dog, a non-narcoleptic control. Prior to injection and at 15, 30 min and one hour intervals after injection, CSF was collected from the cisterna magna with a spinal needle and then quickly frozen at −20. Hypocretin was extracted from 0.5-1 ml samples with reverse a phase SEP-PAK C18 column. An ^125I Hcrt-1 radioimmunoassay was used to measure levels in reconstituted aliquots (described below).
(§4) Prior to RIA, Hcrt-1 is extracted from the CSF or plasma sample. This is achieved by acidification of the sample with 1% TFA followed by loading onto a C18 Sep-Column, washing the column with 1% TFA, and eluting the peptide with 1% TFA/40% acetonitrile. The eluant is then dried down and re-suspended in RIA buffer ready for assay.
The 96-well plates are first coated with protein A(Sigma, binding capacity 9-11 mg of human IgG per mg) by adding 0.1 μg in 100 μl of 0.1M sodium bicarbonate, pH9, to each well. The plates are normally prepared in advance and can be stored for several weeks at 4° C. when tightly wrapped to prevent drying out. However, it is possible to use them after approximately 2 h incubation at room temperature. The protein A solution is then discarded and the plates washed 3 times in a wash buffer consisting of 0.15M K2HPO4, 0.2 mM ascorbic acid, 0.2% Tween 20, pH7.5 and blotted on a paper towel. Next, 200 μl of assay buffer (same as wash buffer plus 0.1% gelatin) is pipetted into each well and left at room temperature for 30 min. This step is included in an attempt to remove protein A bound with only low affinity to the plate which might otherwise dissociate at later stages in the assay thereby removing bound antibody and tracer. After dumping this solution and blotting, 50 μl of the appropriate concentration of antibody diluted with assay buffer is added to all but 4 wells. To these 4 wells are added assay buffer alone to provide an index of non-specific binding. The antibody dilution used is that which is pre-determined to produce 20-30% maximum binding in the assay. The wells are then left for 2 h at room temperature. […]
A 2 h pre-incubation period at room temperature then follows. […] Subsequently the contents of the wells are discarded and the wells washed 3 times with wash buffer and blotted prior to addition of Microscint 20 and counting in the Top Count plate reader. […]

[5] = test system: genetically narcoleptic Doberman pinschers; test: health and behavior observed throughout the study; assay type: in vivo
Description: as §1, §2

REM sleep = conditions: intracerebroventricular administration; cited from earlier work
Hcrt-1 antiserum = test: solid-phase radioimmunoassay (RIA) for Hcrt-1; assay type: binding; conditions: competition with 125I-labeled Hcrt-1
Description: Furthermore, sensitivity is increased over that obtained with more traditional methods using identical antibodies and assay volumes. In this system, the antibody is immobilized onto the surface of 96-well Immulon II-coated plates (Dynatech) through attachment of the constant region of the immunoglobulin (Ig) molecule to the purified bacterial wall protein-protein A (the use of this protein greatly increases the capacity of the wells for antibody thereby avoiding the necessity for antibody purification). […] After a pre-determined incubation period separation of bound from free tracer peptide is accomplished by simply pouring out the contents of the wells and washing with buffer. For example, the individual wells of a 96-well plate containing Ab-bound tracer peptide are then physically separated and counted in a gamma counter. […]
The Hcrt-1, iodinated Hcrt-1, and Hcrt-1 antiserum were obtained from Phoenix Pharmaceuticals, Inc. (530 Harbor Blvd, Belmont, Calif.). […] This enables direct reading of radioactivity in a Top Count plate reader (Packard) without the requirement to separate out individual wells.
The 96-well plates are first coated with protein A(Sigma, binding capacity 9-11 mg of human IgG per mg) by adding 0.1 μg in 100 μl of 0.1M sodium bicarbonate, pH9, to each well. […] The antibody dilution used is that which is pre-determined to produce 20-30% maximum binding in the assay. […]

[6] = Hcrt-1 levels by solid-phase RIA, normal human; assay type: in vivo
Description: as §4
The 96-well plates are first coated with protein A(Sigma, binding capacity 9-11 mg of human IgG per mg) by adding 0.1 μg in 100 μl of 0.1M sodium bicarbonate, pH9, to each well. The plates are normally prepared in advance and can be stored for several weeks at 4° C. when tightly wrapped to prevent drying out. However, it is possible to use them after approximately 2 h incubation at room temperature. The protein A solution is then discarded and the plates washed 3 times in a wash buffer consisting of 0.15M K2HPO4, 0.2 mM ascorbic acid, 0.2% Tween 20, pH7.5 and blotted on a paper towel. Next, 200 μl of assay buffer (same as wash buffer plus 0.1% gelatin) is pipetted into each well and left at room temperature for 30 min. This step is included in an attempt to remove protein A bound with only low affinity to the plate which might otherwise dissociate at later stages in the assay thereby removing bound antibody and tracer. After dumping this solution and blotting, 50 μl of the appropriate concentration of antibody diluted with assay buffer is added to all but 4 wells. To these 4 wells are added assay buffer alone to provide an index of non-specific binding. The antibody dilution used is that which is pre-determined to produce 20-30% maximum binding in the assay. The wells are then left for 2 h at room temperature.
Standard solutions of Hcrt-1 are prepared in quadruplet ranging from 0.1 to 50 fmol in 50 μl. These standards (plus four blanks) are made up in RIA buffer. All dilutions are carried out in polypropylene tubes to minimize loss due to ‘sticking’. The contents of each tube are then transferred to the assay wells following dumping of the antibody solution, washing 3 times with wash buffer and blotting.
A 2 h pre-incubation period at room temperature then follows. At the end of this time 50 μl of assay buffer containing approximately 5,000 CPM of ^125I-labeled tracer peptide is added to each well and the plate left to incubate overnight at 4° C. (this final incubation step can be reduced to approx. 2 h with only slight loss of sensitivity). Subsequently the contents of the wells are discarded and the wells washed 3 times with wash buffer and blotted prior to addition of Microscint 20 and counting in the Top Count plate reader. Results from the Solid-Phase Radioimmunoassay (RIA) for Hypocretin (Hcrt-1) are shown below in Table I: […]

[7] = in vivo; cited from earlier work
[8] = 3 μg/kg, representative actigraph record
[9] = single dose, from 2 hrs after administration

Hcrt-1: Hcrt-1 (orexin-A, #003-30, Phoenix Pharmaceuticals) peptide dissolved in normal saline (QPLPDCCRQKTCSCRLYELLHGAGNHAAGILTL; Orexin-A; UniProt O43612 34-66, looked up)
cataplexy (number of cataplectic attacks) ([1]; 1 μg/kg intravenous): did not produce any change in cataplexy; also recorded: did not affect cataplexy
cataplexy (number of cataplectic attacks) ([1]; 2 μg/kg intravenous): did not produce any change in cataplexy; also recorded: did not affect cataplexy
FECT time (time to consume the food) ([1]; 3 μg/kg intravenous): reduction in the FECT time; also recorded: significant decrease
cataplexy (number of cataplectic attacks / falls) ([1]; 3 μg/kg intravenous): reduction in cataplexy; also recorded: significant decrease in the number of falls
FECT time (time to consume the food) ([1]; 4 μg/kg intravenous): significantly increased the FECT time
cataplexy (number of cataplectic attacks / falls) ([1]; 4 μg/kg intravenous): significantly increased the severity of cataplexy; also recorded: significantly increased the number of falls
effect on cataplexy across doses ([1]; 1 to 4 μg/kg intravenous, ANOVA): significant effect on cataplexy in a dose dependent manner; also recorded: dose dependent change in cataplexy
period without any cataplexy after repeated doses ([1]; after 3-5 doses, two of the 3 dogs treated): ≥ 3 days
time taken to finish the food during the period without cataplexy ([1]; after repeated doses): significantly reduced
period over which severity of cataplexy returned to pretreatment levels ([1]; after repeated doses, both dogs): 3 to 4 days
cataplexy after five doses (FIG. 1D) ([1]; five doses, more severely affected dog): complete suppression of cataplexy during the FECT observed on 3 tests given every other day over a 6 day period
cataplexy after three doses (FIG. 1C) ([1]; three doses, one dog): complete suppression of cataplexy for three consecutive days
motor activity ([2]; 3 μg/kg, after injection, vs saline): increased motor activity; also recorded: increase of motor activity was statistically significant at 0-30 and 30-60 minutes
onset of increase in motor activity after injection [2, 8]: ≤ 5 min
persistence of increase in motor activity [2, 8]: 60 min
sleep consolidation (sleep bout length) ([2]; periods of cataplexy suppression following repeated doses, vs baseline): consolidated (increased sleep bout length)
frequency of sleep bouts ([2]; single dose): reduced; also recorded: decrease in frequency
frequency of wake bouts ([2]; single dose): reduced
how long the effects on sleep and wake period duration lasted ([2]; single dose): more than 24 hrs
mean duration of sleep periods (sleep bout duration) [2, 9]: increased; also recorded: significant increase in sleep bout duration
mean duration of wake periods [2, 9]: increased
total duration of sleep ([2]; vs pre-drug levels): increased after Hcrt-1 as compared to pre-drug levels, but not significantly
REM sleep ([3]; 3 μg/kg, 4 hr post-injection period, vs saline): significant reduction; also recorded: significant decrease in REM sleep
nonREM sleep ([3]; after Hcrt-1 administration): without change
Mean level ([4]; Blood serum): 0.011 nM
Range in levels ([4]; Blood serum): 5 to 16 fmol/mL
Mean level ([4]; Cerebrospinal fluid): 0.053 nM
Range in levels ([4]; Cerebrospinal fluid): 26 to 140 fmol/mL
feeding / rate of food consumption ([5]; period of cataplexy suppression after repeated doses): normal feeding during FECTs; also recorded: consumed their food at a normal rate
abnormal behaviors ([5]; throughout the study): no grooming, “wet dog shakes” or other abnormal behaviors
general health of the dogs ([5]; throughout the study): excellent health
REM sleep (REM sleep): selective suppression of REM sleep
IC50 value for this Hcrt-1 assay (Hcrt-1 antiserum): 2 fmol
Mean level ([6]; Blood serum): 0.01 nM
Range in levels ([6]; Blood serum): 8 to 14 fmol/mL
Mean level ([6]; Cerebrospinal fluid): 0.062 nM
Range in levels ([6]; Cerebrospinal fluid): 21 to 203 fmol/mL

iodinated Hcrt-1: iodinated Hcrt-1 reported in the literature to pass the BBB (QPLPDCCRQKTCSCRLYELLHGAGNHAAGILTL; Orexin-A iodinated; UniProt O43612 34-66, looked up)
passage of the BBB [7]: passes the BBB
